The values below come from US4436733A, “4"- And 3-ester derivatives of DMT and DMOT” (Eli Lilly and Company, priority 1982, dated 1984).

Common to all, as to type: cell-based
For experiment [1], the system named is Haemophilus influenzae Holt. The experiment in a line: standard agar-dilution assay, MIC. The settings on record: ampicillin sensitive strain. As for the experimental part:
(§1) The MIC's in Table III were determined by standard agar-dilutionassays. The MIC's in Table IV were obtained using a conventional broth-dilution microtiter test.
^d Ampicillinsensitive strain

In experiment [2] the test system is Staphylococcus aureus X400. The experiment in a line: standard agar-dilution assay, MIC. The settings on record: Staphylococcus aureus X400, methicillin resistant strain. As to the method: as §1
^c Methicillinresistant-strain

The test system of experiment [3] is Streptococcus pneumoniae Park I. The experiment in a line: standard agar-dilution assay, MIC. As for the experimental part: as §1
For experiment [4], the system named is Streptococcus Group 9960. The experiment in a line: standard agar-dilution assay, MIC. As to the method:
as §1

The subject of experiment [5] is Staphylococcus epidermidis EPI1. Briefly: standard agar-dilution assay, MIC. As to the method: as §1
Experiment [6] has as its system Staphylococcus aureus S13E. The experiment in a line: standard agar-dilution assay, MIC. As for the experimental part: as §1
Experiment [7] deals with Staphylococcus epidermidis EPI2. The experiment in a line: standard agar-dilution assay, MIC. As for the experimental part:
as §1

The subject of experiment [8] is Staphylococcus aureus X1.1. Briefly: standard agar-dilution assay, MIC. As to the method:
as §1

For experiment [9], the system named is Streptococcus pyogenes C203. Briefly: standard agar-dilution assay, MIC. As to the method:
as §1

For experiment [10], the system named is Streptococcus Group D X66. The experiment in a line: standard agar-dilution assay, MIC. As to the method:
as §1

Experiment [11] has as its system Staphylococcus aureus. The experiment in a line: conventional broth-dilution microtiter test, MIC. As for the experimental part:
as §1

The test system of experiment [12] is Pasteurella multocida 60A. Briefly: conventional broth-dilution microtiter test, MIC. To be noted: avian isolate. As for the experimental part:
as §1

Experiment [13] has as its system Pasteurella multocida 17E. Briefly: conventional broth-dilution microtiter test, MIC. To be noted: bovine isolate. As for the experimental part: as §1
Experiment [14] has as its system Mycoplasma synoviae. Briefly: conventional broth-dilution microtiter test, MIC. As for the experimental part: as §1
In experiment [15] the test system is Mycoplasma gallisepticum. The experiment in a line: conventional broth-dilution microtiter test, MIC. As to the method: as §1
Experiment [16] deals with Streptococcus sp. 80. Briefly: conventional broth-dilution microtiter test, MIC. As to the method: as §1
In experiment [17] the test system is Mycoplasma hyorhinis. The experiment in a line: conventional broth-dilution microtiter test, MIC. As for the experimental part: as §1
Experiment [18] concerns Staphylococcus aureus V41. The experiment in a line: standard agar-dilution assay, MIC. The settings on record: Staphylococcus aureus V41, penicillin resistant strain. As for the experimental part: as §1
^b Penicillinresistant strain

Experiment [19] concerns Haemophilus influenzae R252. The experiment in a line: standard agar-dilution assay, MIC. The settings on record: Haemophilus influenzae R252, ampicillin resistant strain. As for the experimental part:
as §1
^e Ampicillinresistant strain

As for `CCC1OC(=O)CC(O)C(C)C(OC2OC(C)C(OC3CC(C)(O)C(OC(=O)Cc4ccccc4)C(C)O3)C(N(C)C)C2O)C(CC=O)CC(C)C(=O)C=CC(C)=CC1COC(=O)Cc1ccccc1` (centres unmarked) [Compound 6, 23,4"-Di-O-Phenylacetyl-DMT], the “MIC (minimal inhibitory concentration)” value was 64 in experiment [1]; 1 in [2]; 0.125 in [3]; 0.5 in experiment [4]; 1 in [5]; 1 in experiment [6]. The “MIC (minimal inhibitory concentration)” value in experiment [7] is listed as 1; in [8], 1; in [9], 0.25; in experiment [10], 0.5; in experiment [11], 1.56; in experiment [12], > 50. The “MIC (minimal inhibitory concentration)” value was 50 in experiment [13]; 0.39 in experiment [14]; ≤ 0.048 in experiment [15]; 0.39 in [16]; 0.195 in experiment [17]; 1 in experiment [18]. Moreover, the “MIC (minimal inhibitory concentration)” value in [19] turned out to be 64.

Turning to `CCC(=O)OC1C(C)OC(OC2C(C)OC(OC3C(CC=O)CC(C)C(=O)C=CC(C)=CC(COC(=O)C(Cl)(Cl)Cl)C(CC)OC(=O)CC(O)C3C)C(OC(C)=O)C2N(C)C)CC1(C)O` (centres unmarked) [Compound 14, 2'-O-Acetyl-4"-O-Propionyl-23-O-Trichloroacetyl-DMT], the “MIC (minimal inhibitory concentration)” value was 8 in [1]; 2 in experiment [2]; 0.125 in experiment [3]; 1 in experiment [4]; 0.5 in experiment [5]; 1 in experiment [6]. For the same molecule, the “MIC (minimal inhibitory concentration)” value in experiment [7] was determined as 2; in experiment [8], 0.5; in experiment [9], 0.5; in experiment [10] it was 2; in experiment [11], 1.56; in experiment [12] it was 25. Moreover, the “MIC (minimal inhibitory concentration)” value was 12.5 in experiment [13]; 0.195 in [14]; 0.39 in [15]; 1.56 in [16]; 6.25 in [17]; 1 in [18]. The “MIC (minimal inhibitory concentration)” value in experiment [19] is reported as 8.

For `CCC(=O)OC1CC(=O)OC(CC)C(COC(=O)C(Cl)(Cl)Cl)C=C(C)C=CC(=O)C(C)CC(CC=O)C(OC2OC(C)C(OC3CC(C)(O)C(OC(=O)CC)C(C)O3)C(N(C)C)C2OC(C)=O)C1C` (centres unmarked) [Compound 15, 2'-O-Acetyl-3,4"-Di-O-Propionyl-23-O-Trichloroacetyl-DMT], the “MIC (minimal inhibitory concentration)” value is given as 64 in experiment [1]; 1 in experiment [2]; 0.06 in experiment [3]; 1 in experiment [4]; 0.5 in experiment [5]; 0.5 in experiment [6]. In addition, the “MIC (minimal inhibitory concentration)” value in experiment [7] was 1; in experiment [8] it was 0.5; in [9], 0.5; in experiment [10], 2; in experiment [11], 1.56; in experiment [12], 50. Further, the “MIC (minimal inhibitory concentration)” value in [13] is listed as 50; in experiment [14], 0.39; in experiment [15], 0.39; in experiment [16], 1.56; in experiment [17], 3.12; in experiment [18] it was 1. The “MIC (minimal inhibitory concentration)” value in [19] was 32.

As to `CCC(=O)OC1C(C)OC(OC2C(C)OC(OC3C(CC=O)CC(C)C(=O)C=CC(C)=CC(CO)C(CC)OC(=O)CC(O)C3C)C(O)C2N(C)C)CC1(C)O` (centres unmarked) [Compound 16, 4"-O-Propionyl-DMT], the “MIC (minimal inhibitory concentration)” value is given as 4 in [1]; 1 in experiment [2]; 0.06 in experiment [3]; 0.5 in experiment [4]; 0.5 in [5]; 0.5 in experiment [6]. Further, the “MIC (minimal inhibitory concentration)” value in experiment [7] is 1; in experiment [8], 0.5; in experiment [9], 0.125; in experiment [10], 0.5; in experiment [18] it was 0.5; in [19], 2.

On to `CCC(=O)OC1CC(=O)OC(CC)C(CO)C=C(C)C=CC(=O)C(C)CC(CC=O)C(OC2OC(C)C(OC3CC(C)(O)C(OC(=O)CC)C(C)O3)C(N(C)C)C2O)C1C` (centres unmarked) [Compound 17, 3,4"-Di-O-Propionyl-DMT], for which the “MIC (minimal inhibitory concentration)” value in experiment [1] is on record as 16; in experiment [2], 1; in experiment [3], 0.06; in experiment [4], 1; in [5] it was 0.5; in experiment [6], 0.5. The “MIC (minimal inhibitory concentration)” value in experiment [7] is reported as 1; in experiment [8], 0.5; in [9] it was 0.25; in experiment [10], 1; in experiment [11], 1.56; in experiment [12] it was 50. The “MIC (minimal inhibitory concentration)” value in experiment [13] came to 25; in experiment [14], 0.195; in experiment [15], 0.097; in experiment [16] it was 0.78; in experiment [17], 3.12; in experiment [18] it was 1. The “MIC (minimal inhibitory concentration)” value in experiment [19] came to 8.

For `CCC1OC(=O)CC(O)C(C)C(OC2OC(C)C(OC3CC(C)(O)C(OC(=O)CC(C)C)C(C)O3)C(N(C)C)C2OC(C)=O)C(CC=O)CC(C)C(=O)C=CC(C)=CC1C` (centres unmarked) [Compound 18, 2'-O-Acetyl-4"-O-Isovaleryl-DMOT], the “MIC (minimal inhibitory concentration)” value in experiment [1] is on record as 32; in experiment [2], 1; in experiment [3], 0.06; in experiment [4], 1; in experiment [5] it was 1; in experiment [6], 1. Besides, the “MIC (minimal inhibitory concentration)” value is recorded as 2 in experiment [7]; 1 in experiment [8]; 0.5 in [9]; 1 in experiment [10]; 0.78 in [11]; > 50 in experiment [12]. Besides, the “MIC (minimal inhibitory concentration)” value came out at 12.5 in [13]; 0.39 in experiment [15]; 0.39 in experiment [16]; 0.78 in [17]; 1 in [18]; 32 in experiment [19].

In the case of `CCC1OC(=O)CC(O)C(C)C(OC2OC(C)C(OC3CC(C)(O)C(OC(=O)CC(C)C)C(C)O3)C(N(C)C)C2O)C(CC=O)CC(C)C(=O)C=CC(C)=CC1C` (centres unmarked) [Compound 19, 4"-O-Isovaleryl-DMOT], the “MIC (minimal inhibitory concentration)” value in experiment [1] is listed as 8; in experiment [2], 1; in experiment [3], 0.03; in [4], 1; in [5], 1; in [6] it was 1. Also, the “MIC (minimal inhibitory concentration)” value in [7] is 1; in experiment [8], 1; in experiment [9] it was 0.25; in [10] it was 1; in [11], 3.12; in [12] it was 12.5. Further, the “MIC (minimal inhibitory concentration)” value in experiment [13] is recorded as 6.25; in experiment [14], 0.39; in [15], 0.195; in [16], 0.195; in experiment [17] it was 0.39; in experiment [18], 1. In [19], the “MIC (minimal inhibitory concentration)” value came to 8.
